The source of these data is ChEMBL document CHEMBL3734721 (J Med Chem, 2015).

Bounds are passed on as bounds.

Data set [1] deals with T1, Alpha-1A adrenergic receptor (Homo sapiens, UniProt P35348).
T1 sequence (P35348 whole entry): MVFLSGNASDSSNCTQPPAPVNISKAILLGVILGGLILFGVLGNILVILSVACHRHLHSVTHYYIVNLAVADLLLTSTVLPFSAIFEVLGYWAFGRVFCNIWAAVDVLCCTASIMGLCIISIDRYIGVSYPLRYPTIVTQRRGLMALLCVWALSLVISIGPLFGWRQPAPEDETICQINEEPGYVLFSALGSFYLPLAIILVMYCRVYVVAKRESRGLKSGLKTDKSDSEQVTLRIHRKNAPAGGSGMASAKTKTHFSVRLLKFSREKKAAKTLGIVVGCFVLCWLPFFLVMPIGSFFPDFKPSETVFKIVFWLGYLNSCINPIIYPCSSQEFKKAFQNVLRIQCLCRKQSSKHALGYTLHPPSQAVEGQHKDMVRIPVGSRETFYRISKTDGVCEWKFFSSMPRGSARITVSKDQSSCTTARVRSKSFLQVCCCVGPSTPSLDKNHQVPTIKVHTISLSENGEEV
Nature of the data set: Agonist activity at human wild-type alpha 1A receptor expressed in CHO cells assessed as calcium level by HTRF assay. Type of data set: functional, cell-based.

The nature of data set [2]: Intrinsic clearance in human liver microsomes at 1 uM by HPLC/MS/MS analysis. Type of data set: ADME. The following applies: read-out: CLH.
The target of data set [3] is Kappa-type opioid receptor (Homo sapiens, UniProt P41145). Nature of the data set: Antagonist activity at human wild-type opioid-kappa 1 receptor expressed in CHO-K1 cells assessed as U50488-induced cAMP by HTRF assay. It counts as functional, cell-based. (In general: In TR-FRET formats the signal depends on donor and acceptor labels being close together.)
The next data set concerns the target Cytochrome P450 2C19 (Homo sapiens, UniProt P33261). Nature of the data set: Inhibition of human CYP2C19 by LC-MS analysis. Type of data set: ADME.
A further data set addresses D(1A) dopamine receptor (Homo sapiens, UniProt P21728). Put plainly: Antagonist activity at human wild-type D1 receptor expressed in CHO cells assessed as dopamine-induced cAMP by HTRF assay. Type of data set: functional, cell-based.
Data set [4] can be described thus: Ratio of drug level in brain to plasma in Swiss mouse at 5 mg/kg, sc. It counts as ADME, organism-based. To be noted: read-out: BPR.
Data set [5] addresses T2, 5-hydroxytryptamine receptor 2C (Homo sapiens, UniProt P28335).
T2 sequence (P28335 whole entry): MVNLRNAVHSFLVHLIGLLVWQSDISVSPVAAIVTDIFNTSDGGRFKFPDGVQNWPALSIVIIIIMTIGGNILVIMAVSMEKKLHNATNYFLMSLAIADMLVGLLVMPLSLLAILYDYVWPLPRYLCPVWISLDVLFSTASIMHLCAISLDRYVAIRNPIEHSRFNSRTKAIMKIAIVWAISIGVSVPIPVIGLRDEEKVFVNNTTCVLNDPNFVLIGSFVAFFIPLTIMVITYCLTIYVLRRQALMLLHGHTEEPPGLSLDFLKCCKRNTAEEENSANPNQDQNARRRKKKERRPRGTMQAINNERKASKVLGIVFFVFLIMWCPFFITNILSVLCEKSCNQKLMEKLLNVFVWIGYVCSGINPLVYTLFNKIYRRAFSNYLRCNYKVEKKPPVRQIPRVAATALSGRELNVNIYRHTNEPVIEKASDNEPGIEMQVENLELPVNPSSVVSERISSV
Nature of the data set: Antagonist activity at human 5-HT2C receptor expressed in CHO-K1 cells assessed as seretonin-induced calcium level by FDSS assay. Type of data set: functional, cell-based.

Data set [6] has as its target 5-hydroxytryptamine receptor 7 (Homo sapiens, UniProt P34969). Nature of the data set: Antagonist activity at human wild-type 5-HT7 receptor expressed in HEK cells assessed as seretonin-induced cAMP by HTRF assay. Type of data set: functional, cell-based, HEK293.
For data set [7], the target named is 5-hydroxytryptamine receptor 1B (Homo sapiens, UniProt P28222). Nature of the data set: Agonist activity at human 5-HT1B receptor expressed in CHO-K1 cells assessed as cAMP level by HTRF assay. Type of data set: functional, cell-based. For orientation: Changes in cAMP serve as a functional read-out for many G protein-coupled receptors.
Data set [8] can be described thus: Chemical stability of compound in 0.1N HCL assessed as compound remaining at 10 mg/ml after 1 day. Type of data set: physicochemical. The following applies: read-out: Stability.
Another data set addresses D(2) dopamine receptor (Homo sapiens, UniProt P14416). Nature of the data set: Antagonist activity at human wild-type D2 receptor expressed in CHO-K1 cells assessed as dopamine-induced cAMP by HTRF assay. Type of data set: functional, cell-based.
Data set [9] can be described thus: Chemical stability of compound in 0.1N NaOH assessed as compound remaining at 10 mg/ml after 2 days. It counts as physicochemical. To be noted: read-out: Stability.
Data set [10] has as its target T3, Muscarinic acetylcholine receptor M3 (Homo sapiens, UniProt P20309). Put plainly: Agonist activity at human wild-type M3 receptor expressed in CHO-K1 cells assessed as calcium level by FDSS assay. It counts as functional, cell-based.
For data set [11], the target named is T3, Muscarinic acetylcholine receptor M3. Nature of the data set: Antagonist activity at human wild-type M3 receptor expressed in CHO-K1 cells assessed as acetylcholine-induced calcium by FDSS assay. It counts as functional, cell-based.
In data set [12] the target is T4, Type-1 angiotensin II receptor (Homo sapiens, UniProt P30556).
T4 sequence (P30556 whole entry): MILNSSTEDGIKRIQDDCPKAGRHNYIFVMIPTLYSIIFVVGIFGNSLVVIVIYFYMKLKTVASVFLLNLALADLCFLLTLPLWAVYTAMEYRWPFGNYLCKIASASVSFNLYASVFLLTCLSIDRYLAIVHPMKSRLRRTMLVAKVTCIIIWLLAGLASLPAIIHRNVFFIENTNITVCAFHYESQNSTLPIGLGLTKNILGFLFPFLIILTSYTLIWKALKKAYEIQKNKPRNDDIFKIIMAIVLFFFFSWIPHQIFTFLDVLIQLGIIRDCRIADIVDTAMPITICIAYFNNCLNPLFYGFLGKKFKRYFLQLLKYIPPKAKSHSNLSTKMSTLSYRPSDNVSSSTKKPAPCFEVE
Put plainly: Antagonist activity at human wild-type AGTR1 receptor expressed in CHO-K1 cells assessed as angiotensin-2-induced calcium by FDSS assay. It counts as functional, cell-based.

Data set [13] is described as follows: Chemical stability of compound in DMSO assessed as compound remaining at 10 mg/ml after 24 days at room temperature under air. To be noted: read-out: Stability. It counts as physicochemical.
The target in data set [14] is 5-hydroxytryptamine receptor 2A (Homo sapiens, UniProt P28223). Put plainly: Antagonist activity at human 5-HT2A receptor expressed in CHO-K1 cells assessed as seretonin-induced calcium level by FDSS assay. It counts as functional, cell-based.
The next data set addresses T5, Endothelin-1 receptor (Homo sapiens, UniProt P25101).
T5 sequence (P25101 whole entry): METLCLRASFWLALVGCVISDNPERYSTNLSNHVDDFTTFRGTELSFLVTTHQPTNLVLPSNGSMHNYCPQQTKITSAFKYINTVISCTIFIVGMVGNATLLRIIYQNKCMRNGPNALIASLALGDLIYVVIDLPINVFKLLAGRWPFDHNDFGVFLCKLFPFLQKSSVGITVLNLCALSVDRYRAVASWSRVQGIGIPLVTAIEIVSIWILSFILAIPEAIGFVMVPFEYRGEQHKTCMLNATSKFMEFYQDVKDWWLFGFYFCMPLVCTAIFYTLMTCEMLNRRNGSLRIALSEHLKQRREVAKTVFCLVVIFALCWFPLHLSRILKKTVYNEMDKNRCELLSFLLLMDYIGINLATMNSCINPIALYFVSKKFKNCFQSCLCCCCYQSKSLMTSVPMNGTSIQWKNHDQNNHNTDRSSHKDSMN
Put plainly: Agonist activity at human wild-type ETA receptor expressed in CHO-K1 cells assessed as calcium level by HTRF assay. Type of data set: functional, cell-based.

A short description of data set [15]: Fraction unbound in rat plasma at 5 uM after 4.5 hrs by LC-MS/MS analysis. It counts as ADME, cell-free.

T3 sequence (P20309 whole entry): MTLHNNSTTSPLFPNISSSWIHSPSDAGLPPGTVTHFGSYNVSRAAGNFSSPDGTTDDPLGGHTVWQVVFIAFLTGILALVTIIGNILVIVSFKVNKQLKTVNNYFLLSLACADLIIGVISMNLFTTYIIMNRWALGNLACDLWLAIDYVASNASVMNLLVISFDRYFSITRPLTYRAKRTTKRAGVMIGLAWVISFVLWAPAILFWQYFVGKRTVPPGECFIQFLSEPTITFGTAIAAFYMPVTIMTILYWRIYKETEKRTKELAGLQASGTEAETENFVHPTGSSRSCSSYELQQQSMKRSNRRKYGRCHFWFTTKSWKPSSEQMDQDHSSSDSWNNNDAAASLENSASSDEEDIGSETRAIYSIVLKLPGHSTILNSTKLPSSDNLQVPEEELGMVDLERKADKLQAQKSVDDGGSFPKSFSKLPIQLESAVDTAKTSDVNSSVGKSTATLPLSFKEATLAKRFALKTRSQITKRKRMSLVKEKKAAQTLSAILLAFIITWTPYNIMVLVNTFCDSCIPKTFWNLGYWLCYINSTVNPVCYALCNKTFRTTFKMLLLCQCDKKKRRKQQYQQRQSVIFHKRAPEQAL
Sequence of 5-hydroxytryptamine receptor 7 (P34969 whole entry): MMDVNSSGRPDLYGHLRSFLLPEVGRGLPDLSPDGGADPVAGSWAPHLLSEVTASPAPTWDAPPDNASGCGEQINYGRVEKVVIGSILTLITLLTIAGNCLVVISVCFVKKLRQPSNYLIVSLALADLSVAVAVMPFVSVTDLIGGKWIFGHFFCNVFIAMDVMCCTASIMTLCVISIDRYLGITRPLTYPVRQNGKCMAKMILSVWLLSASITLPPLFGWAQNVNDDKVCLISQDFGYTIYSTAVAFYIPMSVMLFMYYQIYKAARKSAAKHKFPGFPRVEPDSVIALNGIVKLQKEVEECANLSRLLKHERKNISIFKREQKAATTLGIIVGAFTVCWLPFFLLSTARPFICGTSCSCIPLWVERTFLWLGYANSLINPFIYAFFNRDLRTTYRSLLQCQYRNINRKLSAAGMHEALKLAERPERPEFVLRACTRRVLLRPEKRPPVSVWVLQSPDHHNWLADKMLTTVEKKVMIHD
Sequence of Cytochrome P450 2C19 (P33261 whole entry): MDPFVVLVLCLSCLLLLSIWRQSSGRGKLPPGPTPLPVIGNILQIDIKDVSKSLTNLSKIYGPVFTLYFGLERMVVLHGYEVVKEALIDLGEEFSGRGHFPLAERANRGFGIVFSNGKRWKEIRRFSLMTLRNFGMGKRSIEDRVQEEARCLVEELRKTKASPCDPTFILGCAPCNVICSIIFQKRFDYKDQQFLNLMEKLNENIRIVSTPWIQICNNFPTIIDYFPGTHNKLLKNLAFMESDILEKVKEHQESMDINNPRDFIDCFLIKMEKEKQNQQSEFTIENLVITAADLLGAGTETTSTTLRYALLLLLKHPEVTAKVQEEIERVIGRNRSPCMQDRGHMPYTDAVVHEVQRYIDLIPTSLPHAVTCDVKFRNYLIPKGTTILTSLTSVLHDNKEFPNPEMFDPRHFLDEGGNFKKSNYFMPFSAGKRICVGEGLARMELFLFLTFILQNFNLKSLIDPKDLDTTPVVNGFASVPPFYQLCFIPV
Sequence of 5-hydroxytryptamine receptor 1B (P28222 whole entry): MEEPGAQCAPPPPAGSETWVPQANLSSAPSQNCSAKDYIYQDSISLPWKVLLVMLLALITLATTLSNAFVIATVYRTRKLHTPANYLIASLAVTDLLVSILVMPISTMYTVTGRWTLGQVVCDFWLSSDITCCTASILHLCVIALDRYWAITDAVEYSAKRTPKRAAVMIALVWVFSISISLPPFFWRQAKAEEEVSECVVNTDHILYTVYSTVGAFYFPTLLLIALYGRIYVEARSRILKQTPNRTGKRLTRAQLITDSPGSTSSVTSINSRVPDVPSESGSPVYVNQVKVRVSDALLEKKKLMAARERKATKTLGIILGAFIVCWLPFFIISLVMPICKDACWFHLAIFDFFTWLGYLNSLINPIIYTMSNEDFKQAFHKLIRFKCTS
Sequence of D(1A) dopamine receptor (P21728 whole entry): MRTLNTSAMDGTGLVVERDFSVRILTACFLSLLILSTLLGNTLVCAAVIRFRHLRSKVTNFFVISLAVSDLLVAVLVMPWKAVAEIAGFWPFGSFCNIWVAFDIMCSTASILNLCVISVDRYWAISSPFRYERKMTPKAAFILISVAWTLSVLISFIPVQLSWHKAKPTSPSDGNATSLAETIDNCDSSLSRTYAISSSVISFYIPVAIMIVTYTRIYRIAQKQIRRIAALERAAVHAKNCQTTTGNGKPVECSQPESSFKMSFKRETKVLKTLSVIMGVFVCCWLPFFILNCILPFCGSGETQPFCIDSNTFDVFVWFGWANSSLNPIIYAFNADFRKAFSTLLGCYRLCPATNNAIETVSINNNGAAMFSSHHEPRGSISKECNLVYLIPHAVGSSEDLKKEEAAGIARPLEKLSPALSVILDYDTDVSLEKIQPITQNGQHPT
Sequence of 5-hydroxytryptamine receptor 2A (P28223 whole entry): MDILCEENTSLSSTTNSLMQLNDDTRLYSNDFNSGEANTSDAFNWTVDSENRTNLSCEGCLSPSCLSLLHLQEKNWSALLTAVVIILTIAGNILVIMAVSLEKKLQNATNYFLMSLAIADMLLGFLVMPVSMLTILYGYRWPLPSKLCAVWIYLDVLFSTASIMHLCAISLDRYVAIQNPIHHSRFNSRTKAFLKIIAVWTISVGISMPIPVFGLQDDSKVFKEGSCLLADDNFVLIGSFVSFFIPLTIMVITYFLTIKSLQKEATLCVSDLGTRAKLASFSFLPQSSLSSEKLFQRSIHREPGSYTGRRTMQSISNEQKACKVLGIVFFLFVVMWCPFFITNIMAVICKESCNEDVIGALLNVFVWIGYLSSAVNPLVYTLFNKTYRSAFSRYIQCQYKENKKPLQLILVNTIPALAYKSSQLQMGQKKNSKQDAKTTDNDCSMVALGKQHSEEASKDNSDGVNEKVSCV
Sequence of D(2) dopamine receptor (P14416 whole entry): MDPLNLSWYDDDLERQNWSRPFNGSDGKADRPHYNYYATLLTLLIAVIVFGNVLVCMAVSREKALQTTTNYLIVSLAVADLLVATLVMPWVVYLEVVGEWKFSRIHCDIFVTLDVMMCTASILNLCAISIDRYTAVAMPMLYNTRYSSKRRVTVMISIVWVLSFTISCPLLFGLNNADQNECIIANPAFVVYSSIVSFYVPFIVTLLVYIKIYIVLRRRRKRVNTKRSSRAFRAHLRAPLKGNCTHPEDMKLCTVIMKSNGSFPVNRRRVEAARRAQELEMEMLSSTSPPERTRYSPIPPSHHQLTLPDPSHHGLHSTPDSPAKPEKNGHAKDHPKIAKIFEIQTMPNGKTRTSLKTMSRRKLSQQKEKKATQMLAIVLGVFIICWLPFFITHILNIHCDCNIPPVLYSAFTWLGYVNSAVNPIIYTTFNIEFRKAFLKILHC
Sequence of Kappa-type opioid receptor (P41145 whole entry): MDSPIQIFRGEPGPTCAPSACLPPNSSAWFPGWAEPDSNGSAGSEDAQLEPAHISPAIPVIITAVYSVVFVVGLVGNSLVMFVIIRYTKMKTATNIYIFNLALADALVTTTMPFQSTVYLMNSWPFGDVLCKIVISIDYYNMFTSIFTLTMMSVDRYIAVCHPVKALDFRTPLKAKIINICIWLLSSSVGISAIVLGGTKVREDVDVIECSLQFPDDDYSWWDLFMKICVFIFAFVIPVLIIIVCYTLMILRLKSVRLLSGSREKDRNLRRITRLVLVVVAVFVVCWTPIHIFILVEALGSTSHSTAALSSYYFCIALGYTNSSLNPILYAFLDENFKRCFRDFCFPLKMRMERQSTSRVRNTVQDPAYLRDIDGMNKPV

For `CB1C=Cc2c(cccc2OCC(O)CN(C)C)N1` (stereo not drawn), the EC50 (in data set [1]; in data set [7]; in data set [10]; at Endothelin-1 receptor) was > 5.01 µM throughout. In data set [2], the microsomal CLint at 1 µM was 11 µL/min/mg. The IC50 (in general, the concentration needed to halve the response being measured) in data set [3] was > 5.01 µM; at Cytochrome P450 2C19 it was > 10 µM; at D(1A) dopamine receptor, > 5.01 µM; in data set [5], > 5.01 µM; in data set [6], > 5.01 µM; on D(2) dopamine receptor, > 5.01 µM. Further, the IC50 in [11], in [12] and in [14] was > 5.01 µM throughout. Also, the Kp in [4] was determined as 19. Also, the remaining at 24 h, 10 mg/ml in data set [8] turned out to be 0%. Besides, the remaining at 48 h, 10 mg/ml in data set [9] is 83%. In addition, the remaining at 576 h, 10 mg/ml in data set [13] was 97%. In addition, the fraction unbound (usually the share of the substance not bound to proteins or other matrix) at 4.5 h, 5 µM in data set [15] is 0.29.

As for `CB1C=Cc2cccc(OCC(O)CNC(C)C)c2N1` (stereo not drawn), the EC50 (in data set [1]; in [7]; in [10]; at Endothelin-1 receptor) was > 5.01 µM in each case. In addition, the microsomal CLint at 1 µM in [2] came out at 8.7 µL/min/mg. For the same molecule, the IC50 in data set [3] was > 5.01 µM; at Cytochrome P450 2C19, > 10 µM; at D(1A) dopamine receptor it was > 5.01 µM; in data set [5] it was > 5.01 µM; in [6], > 5.01 µM; at D(2) dopamine receptor it was > 5.01 µM. In addition, the IC50 in [11], in [12] and in data set [14] was > 5.01 µM throughout. In addition, the Kp in data set [4] was 13. Further, the remaining at 24 h, 10 mg/ml in data set [8] is 0%. Further, in data set [9], the remaining at 48 h, 10 mg/ml was determined as 82%. The remaining at 576 h, 10 mg/ml in data set [13] is 98%. Also, the fraction unbound at 4.5 h, 5 µM in data set [15] worked out at 0.096.
